Reference: ChEMBL document CHEMBL1201862, “PubChem BioAssay data set” (2004)
Calls of active or inactive are those of the source.

Experiments:
Assay type in all cases: functional
[1] = target: Protein kinase C theta type (Homo sapiens, UniProt Q04759); experiment: Navigating the Kinome. Panel member name: PRKCQ
[2] = target: Glycogen synthase kinase-3 beta (Homo sapiens, UniProt P49841);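 also: value comes from a broad kinome profiling panel, with GSK3B as the panel member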
[3] = target: Mitogen-activated protein kinase 9 (Homo sapiens, UniProt P45984);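 also: value from a kinome panel profiling assay, MAPK9 panel entry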
[4] = target: G protein-coupled receptor kinase 5 (Homo sapiens, UniProt P34947); experiment: Navigating the Kinome. Panel member name: GPRK5
[5] = target: Mitogen-activated protein kinase 8 (Homo sapiens, UniProt P45983);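 also: value comes from one member of a kinome-wide kinase profiling panel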
[6] = target: Tyrosine-protein kinase Fyn (Homo sapiens, UniProt P06241)
[7] = target: Tyrosine-protein kinase JAK2 (Homo sapiens, UniProt O60674);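 also: JAK2 tested as one member of a kinase panel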
[8] = target: Dual specificity protein kinase CLK4 (Homo sapiens, UniProt Q9HAZ1)
[9] = target: Insulin-like growth factor 1 receptor (Homo sapiens, UniProt P08069); experiment: Navigating the Kinome. Panel member name: IGF1R
[10] = target: Proto-oncogene tyrosine-protein kinase receptor Ret (Homo sapiens, UniProt P07949);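 also: measured within a kinome-wide profiling panel, RET as the panel member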
[11] = target: Dual specificity tyrosine-phosphorylation-regulated kinase 1B (Homo sapiens, UniProt Q9Y463); experiment: Navigating the Kinome. Panel member name: DYRK1B
[12] = target: Death-associated protein kinase 3 (Homo sapiens, UniProt O43293);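 also: measured as one member of a kinome-wide profiling panel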
[13] = NIH-3T3 fibroblast cytotoxicity, dose response, cytotoxicity control, cell-based, fluorescence, Alamar Blue, secondary assay (AID 2327);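 also: NIH-3T3 mouse fibroblasts cultured with fluconazole at 8 µg/mL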
[14] = target: T1, Sentrin-specific protease 6 (Homo sapiens, UniProt Q9GZR1);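 also: Luminescence-based dose-response confirmatory assay of SENP6 inhibition, following up an ultra-high-throughput screen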
T1 sequence (Q9GZR1 whole entry): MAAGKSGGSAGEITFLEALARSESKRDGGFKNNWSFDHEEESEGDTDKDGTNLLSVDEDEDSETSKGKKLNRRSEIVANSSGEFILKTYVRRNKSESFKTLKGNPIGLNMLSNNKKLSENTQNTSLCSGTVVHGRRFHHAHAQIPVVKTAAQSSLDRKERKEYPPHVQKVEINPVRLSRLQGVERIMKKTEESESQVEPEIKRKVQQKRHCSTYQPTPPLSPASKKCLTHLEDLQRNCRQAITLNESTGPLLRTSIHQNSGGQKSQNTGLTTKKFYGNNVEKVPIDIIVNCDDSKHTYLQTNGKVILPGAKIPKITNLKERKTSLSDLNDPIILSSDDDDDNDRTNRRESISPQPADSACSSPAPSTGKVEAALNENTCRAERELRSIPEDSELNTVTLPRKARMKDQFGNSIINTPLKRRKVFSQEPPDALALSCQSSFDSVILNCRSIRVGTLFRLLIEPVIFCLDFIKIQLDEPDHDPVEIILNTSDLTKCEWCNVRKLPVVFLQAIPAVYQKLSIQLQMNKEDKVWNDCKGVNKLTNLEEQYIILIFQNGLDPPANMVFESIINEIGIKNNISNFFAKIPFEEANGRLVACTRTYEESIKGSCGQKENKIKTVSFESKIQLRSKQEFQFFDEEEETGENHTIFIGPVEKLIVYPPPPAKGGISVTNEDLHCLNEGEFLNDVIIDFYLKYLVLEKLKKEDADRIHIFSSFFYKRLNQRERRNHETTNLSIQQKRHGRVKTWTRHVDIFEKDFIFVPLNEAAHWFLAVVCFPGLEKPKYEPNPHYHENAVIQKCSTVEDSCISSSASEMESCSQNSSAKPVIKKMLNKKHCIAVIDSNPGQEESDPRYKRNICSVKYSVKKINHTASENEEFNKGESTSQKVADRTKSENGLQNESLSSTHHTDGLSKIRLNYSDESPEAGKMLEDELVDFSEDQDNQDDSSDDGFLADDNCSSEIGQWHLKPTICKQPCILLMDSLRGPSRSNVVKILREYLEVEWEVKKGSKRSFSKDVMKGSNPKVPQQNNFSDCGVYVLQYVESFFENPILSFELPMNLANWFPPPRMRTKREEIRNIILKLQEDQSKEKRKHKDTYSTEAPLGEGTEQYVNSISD

[15] = target: T2, Sentrin-specific protease 8 (Homo sapiens, UniProt Q96LD8);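 also: luminescence read-out of SENP8 inhibition, dose-response confirmation following an ultra-high-throughput screen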
T2 sequence (Q96LD8 whole entry): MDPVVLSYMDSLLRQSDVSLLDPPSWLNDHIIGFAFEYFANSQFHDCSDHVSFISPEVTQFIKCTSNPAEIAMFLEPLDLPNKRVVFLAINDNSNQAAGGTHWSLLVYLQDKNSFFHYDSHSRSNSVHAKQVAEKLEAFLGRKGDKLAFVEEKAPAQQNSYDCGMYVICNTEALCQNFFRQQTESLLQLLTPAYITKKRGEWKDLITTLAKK

Sequence of Tyrosine-protein kinase JAK2 (O60674 whole entry): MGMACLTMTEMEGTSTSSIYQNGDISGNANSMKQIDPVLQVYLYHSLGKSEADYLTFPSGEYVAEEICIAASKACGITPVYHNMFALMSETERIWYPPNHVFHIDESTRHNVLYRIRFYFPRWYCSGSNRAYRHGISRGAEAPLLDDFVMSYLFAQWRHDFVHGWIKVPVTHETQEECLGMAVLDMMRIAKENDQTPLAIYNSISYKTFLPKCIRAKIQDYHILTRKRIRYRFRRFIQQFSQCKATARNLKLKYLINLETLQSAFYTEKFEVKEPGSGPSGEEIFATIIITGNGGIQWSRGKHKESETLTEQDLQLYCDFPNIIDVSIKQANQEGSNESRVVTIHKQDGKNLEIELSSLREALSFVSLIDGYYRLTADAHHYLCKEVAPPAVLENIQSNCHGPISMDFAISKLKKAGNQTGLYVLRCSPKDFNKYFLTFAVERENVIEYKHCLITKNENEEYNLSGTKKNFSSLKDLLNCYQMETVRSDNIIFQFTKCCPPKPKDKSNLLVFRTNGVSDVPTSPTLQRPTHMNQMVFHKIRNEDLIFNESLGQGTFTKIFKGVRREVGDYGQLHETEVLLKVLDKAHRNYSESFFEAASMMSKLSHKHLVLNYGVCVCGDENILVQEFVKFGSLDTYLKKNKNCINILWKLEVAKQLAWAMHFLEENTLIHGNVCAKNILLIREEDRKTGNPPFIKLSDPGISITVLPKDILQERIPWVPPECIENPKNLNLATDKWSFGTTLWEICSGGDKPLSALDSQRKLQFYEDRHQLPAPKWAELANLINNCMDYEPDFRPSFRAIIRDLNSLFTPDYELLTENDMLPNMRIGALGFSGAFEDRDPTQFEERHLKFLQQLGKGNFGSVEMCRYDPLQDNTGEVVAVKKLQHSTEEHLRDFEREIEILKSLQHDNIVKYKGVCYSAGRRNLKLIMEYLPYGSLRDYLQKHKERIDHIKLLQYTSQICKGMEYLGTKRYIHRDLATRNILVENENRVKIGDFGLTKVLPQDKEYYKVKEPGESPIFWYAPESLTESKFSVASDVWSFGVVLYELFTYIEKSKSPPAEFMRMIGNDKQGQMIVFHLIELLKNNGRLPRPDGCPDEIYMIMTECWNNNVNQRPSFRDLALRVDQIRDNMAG
Sequence of Tyrosine-protein kinase Fyn (P06241 whole entry): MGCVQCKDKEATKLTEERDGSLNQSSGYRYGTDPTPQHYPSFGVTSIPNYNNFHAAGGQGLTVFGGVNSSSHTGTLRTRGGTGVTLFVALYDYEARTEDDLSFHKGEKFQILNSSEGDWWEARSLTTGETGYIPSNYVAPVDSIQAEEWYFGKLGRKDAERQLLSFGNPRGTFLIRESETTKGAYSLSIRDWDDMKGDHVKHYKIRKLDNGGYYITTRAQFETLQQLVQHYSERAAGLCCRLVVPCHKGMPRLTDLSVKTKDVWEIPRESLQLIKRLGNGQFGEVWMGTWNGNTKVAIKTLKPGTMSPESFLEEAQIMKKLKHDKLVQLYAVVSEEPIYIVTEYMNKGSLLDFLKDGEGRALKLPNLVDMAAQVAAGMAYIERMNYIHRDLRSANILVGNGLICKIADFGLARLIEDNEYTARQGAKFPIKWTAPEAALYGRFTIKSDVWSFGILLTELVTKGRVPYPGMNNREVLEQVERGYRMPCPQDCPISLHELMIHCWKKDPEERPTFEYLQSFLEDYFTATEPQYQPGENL
Sequence of Mitogen-activated protein kinase 9 (P45984 whole entry): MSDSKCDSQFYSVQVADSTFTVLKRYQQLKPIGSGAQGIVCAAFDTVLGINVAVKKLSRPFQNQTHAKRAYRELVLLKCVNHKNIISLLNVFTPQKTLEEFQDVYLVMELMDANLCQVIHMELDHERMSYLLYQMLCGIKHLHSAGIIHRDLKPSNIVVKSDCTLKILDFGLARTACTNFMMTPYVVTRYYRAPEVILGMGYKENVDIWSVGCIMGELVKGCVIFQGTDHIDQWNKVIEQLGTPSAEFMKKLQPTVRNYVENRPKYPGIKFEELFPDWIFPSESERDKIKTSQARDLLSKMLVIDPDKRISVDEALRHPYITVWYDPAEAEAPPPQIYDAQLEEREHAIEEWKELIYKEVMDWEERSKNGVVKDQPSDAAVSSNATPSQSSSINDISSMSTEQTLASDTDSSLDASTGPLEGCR
Sequence of Glycogen synthase kinase-3 beta (P49841 whole entry): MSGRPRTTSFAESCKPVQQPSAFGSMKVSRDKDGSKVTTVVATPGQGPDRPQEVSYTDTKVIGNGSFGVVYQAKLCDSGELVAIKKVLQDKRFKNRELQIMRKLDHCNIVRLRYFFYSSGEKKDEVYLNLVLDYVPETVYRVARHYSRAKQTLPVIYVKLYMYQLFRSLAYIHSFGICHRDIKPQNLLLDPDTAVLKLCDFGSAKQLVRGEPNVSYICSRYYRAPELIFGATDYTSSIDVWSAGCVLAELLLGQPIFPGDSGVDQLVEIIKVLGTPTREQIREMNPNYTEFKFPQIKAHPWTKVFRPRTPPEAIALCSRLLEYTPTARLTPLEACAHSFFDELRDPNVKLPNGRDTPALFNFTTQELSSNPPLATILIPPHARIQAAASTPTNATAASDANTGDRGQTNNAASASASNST
Sequence of G protein-coupled receptor kinase 5 (P34947 whole entry): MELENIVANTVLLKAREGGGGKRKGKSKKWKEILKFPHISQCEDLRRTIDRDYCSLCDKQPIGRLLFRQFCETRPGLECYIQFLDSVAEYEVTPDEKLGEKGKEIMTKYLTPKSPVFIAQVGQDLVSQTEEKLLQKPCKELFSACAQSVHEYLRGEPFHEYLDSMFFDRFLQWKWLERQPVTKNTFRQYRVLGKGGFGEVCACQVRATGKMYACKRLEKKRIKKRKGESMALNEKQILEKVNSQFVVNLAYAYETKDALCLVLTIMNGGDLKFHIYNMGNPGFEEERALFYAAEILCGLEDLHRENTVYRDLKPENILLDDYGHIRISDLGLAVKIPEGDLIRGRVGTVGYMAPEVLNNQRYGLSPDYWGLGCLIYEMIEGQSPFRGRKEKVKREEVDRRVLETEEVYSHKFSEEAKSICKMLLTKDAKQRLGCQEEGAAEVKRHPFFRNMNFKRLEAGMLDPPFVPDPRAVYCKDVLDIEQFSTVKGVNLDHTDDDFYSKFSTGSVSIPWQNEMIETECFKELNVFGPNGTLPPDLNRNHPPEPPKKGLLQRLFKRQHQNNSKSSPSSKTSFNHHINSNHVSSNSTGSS
Sequence of Proto-oncogene tyrosine-protein kinase receptor Ret (P07949 whole entry): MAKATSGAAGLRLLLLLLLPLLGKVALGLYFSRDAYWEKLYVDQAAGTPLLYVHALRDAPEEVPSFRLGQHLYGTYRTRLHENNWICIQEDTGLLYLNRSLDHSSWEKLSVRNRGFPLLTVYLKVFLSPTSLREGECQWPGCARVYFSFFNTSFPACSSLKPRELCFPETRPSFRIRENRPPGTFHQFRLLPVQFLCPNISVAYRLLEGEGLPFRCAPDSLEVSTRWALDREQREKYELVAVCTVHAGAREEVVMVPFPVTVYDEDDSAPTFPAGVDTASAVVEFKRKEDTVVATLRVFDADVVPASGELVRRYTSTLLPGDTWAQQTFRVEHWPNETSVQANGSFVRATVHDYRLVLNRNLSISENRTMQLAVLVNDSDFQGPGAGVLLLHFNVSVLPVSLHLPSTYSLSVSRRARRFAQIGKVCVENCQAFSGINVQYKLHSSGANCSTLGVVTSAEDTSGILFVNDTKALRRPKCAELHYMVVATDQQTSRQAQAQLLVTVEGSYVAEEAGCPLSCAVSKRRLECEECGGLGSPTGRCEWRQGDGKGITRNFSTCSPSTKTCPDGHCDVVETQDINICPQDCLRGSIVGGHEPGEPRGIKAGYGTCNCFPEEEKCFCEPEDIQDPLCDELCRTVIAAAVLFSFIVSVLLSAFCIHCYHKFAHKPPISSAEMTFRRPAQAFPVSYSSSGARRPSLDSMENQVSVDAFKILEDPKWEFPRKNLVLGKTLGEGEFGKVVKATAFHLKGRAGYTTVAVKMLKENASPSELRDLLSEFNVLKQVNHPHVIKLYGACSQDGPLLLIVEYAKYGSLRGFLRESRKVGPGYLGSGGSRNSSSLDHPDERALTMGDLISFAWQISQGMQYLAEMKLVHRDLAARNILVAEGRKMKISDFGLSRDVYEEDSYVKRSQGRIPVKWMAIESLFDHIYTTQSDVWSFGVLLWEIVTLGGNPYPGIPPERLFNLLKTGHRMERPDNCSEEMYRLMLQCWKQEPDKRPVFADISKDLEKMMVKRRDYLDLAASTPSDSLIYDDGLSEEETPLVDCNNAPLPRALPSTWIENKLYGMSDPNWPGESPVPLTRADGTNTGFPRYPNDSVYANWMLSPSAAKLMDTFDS
Sequence of Dual specificity protein kinase CLK4 (Q9HAZ1 whole entry): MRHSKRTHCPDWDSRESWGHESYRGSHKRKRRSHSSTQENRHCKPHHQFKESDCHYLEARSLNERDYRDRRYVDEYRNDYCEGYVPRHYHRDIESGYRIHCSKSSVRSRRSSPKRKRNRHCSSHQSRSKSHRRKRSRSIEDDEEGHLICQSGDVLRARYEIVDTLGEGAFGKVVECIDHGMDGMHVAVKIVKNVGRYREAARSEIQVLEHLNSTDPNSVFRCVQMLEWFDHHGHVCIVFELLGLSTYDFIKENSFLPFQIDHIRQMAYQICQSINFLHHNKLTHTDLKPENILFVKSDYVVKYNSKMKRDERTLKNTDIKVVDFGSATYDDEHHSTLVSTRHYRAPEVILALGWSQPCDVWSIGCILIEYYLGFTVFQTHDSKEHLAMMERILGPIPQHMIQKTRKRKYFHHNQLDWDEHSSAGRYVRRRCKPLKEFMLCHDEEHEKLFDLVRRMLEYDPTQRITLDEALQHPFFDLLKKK

Structure (SMILES) | Ki [1] | Ki [2] | Ki [3] | Ki [4] | Ki [5] | Ki [6] | Ki [7] | Ki [8] | Ki [9] | Ki [10] | Ki [11] | Ki [12] | EC50 [13] | IC50 [14] | IC50 [15]
CNC[C@H](Cc1ccccc1)NC[C@@H](Cc1cccc2ccccc12)NCCc1ccc(C)cc1 | – | – | – | – | – | – | – | – | – | – | – | – | > 160 µM (inconclusive) | – | –
CCN1C(=Cc2sc3ccccc3[n+]2C)C=Cc2cccc(C)c21 | – | – | – | – | – | – | – | – | – | – | – | – | 15.5 µM (inconclusive) | – | –
Nc1nnc2c(n1)CCCC2 | – | – | – | – | – | – | – | – | – | – | – | – | – | 7.37 µM (active) | 10.8 µM (active)
O=C(N/N=C/c1c(O)ccc2ccccc12)c1[nH]ncc1Br | – | – | – | – | – | – | – | – | – | – | – | – | – | > 100 µM (inactive) | > 100 µM (inactive)

More lines, main results first:

Ki [1] | Ki [2] | Ki [3] | Ki [4] | Ki [5] | Ki [6] | Ki [7] | Ki [8] | Ki [9] | Ki [10] | Ki [11] | Structure (SMILES) | Ki [12] | EC50 [13] | IC50 [14] | IC50 [15]
> 2.51 µM (inactive) | > 3.98 µM (inactive) | > 3.98 µM (inactive) | > 3.98 µM (inactive) | > 5.01 µM (inactive) | > 6.31 µM (inactive) | > 2.51 µM (inactive) | 0.0251 µM (active) | > 2.51 µM (inactive) | > 3.16 µM (inactive) | 0.316 µM (active) | O=C(Nc1cc(-c2c[nH]c3ncccc23)cc(Cl)n1)c1ccccc1 | > 3.98 µM (inactive) | – | – | –
> 2.51 µM (inactive) | > 3.98 µM (inactive) | > 3.98 µM (inactive) | > 3.98 µM (inactive) | > 5.01 µM (inactive) | 0.316 µM (active) | > 2.51 µM (inactive) | > 2.51 µM (inactive) | > 2.51 µM (inactive) | 0.00398 µM (active) | > 2.51 µM (inactive) | Nc1c(-c2ccc(NC(=O)Nc3cccc(C(F)(F)F)c3)cc2)cnc2c(-c3ccc4c(c3)OCO4)cnn12 | > 5.01 µM (inactive) | – | – | –
